US10934296B2, “4-imidazopyridazin-1-yl-benzamides as Btk inhibitors” (Merck Sharp & Dohme B.V., priority 2011, dated 2021)

Target: Btk enzyme (His-Btk) (Homo sapiens (Human), UniProt Q06187)
Assay: Btk enzyme activity, IMAP fluorescence polarization assay
Conditions: 60 min pre-incubation, 5 μM ATP, bin bounds in nM

Btk enzyme (His-Btk), sequence (Q06187 whole entry): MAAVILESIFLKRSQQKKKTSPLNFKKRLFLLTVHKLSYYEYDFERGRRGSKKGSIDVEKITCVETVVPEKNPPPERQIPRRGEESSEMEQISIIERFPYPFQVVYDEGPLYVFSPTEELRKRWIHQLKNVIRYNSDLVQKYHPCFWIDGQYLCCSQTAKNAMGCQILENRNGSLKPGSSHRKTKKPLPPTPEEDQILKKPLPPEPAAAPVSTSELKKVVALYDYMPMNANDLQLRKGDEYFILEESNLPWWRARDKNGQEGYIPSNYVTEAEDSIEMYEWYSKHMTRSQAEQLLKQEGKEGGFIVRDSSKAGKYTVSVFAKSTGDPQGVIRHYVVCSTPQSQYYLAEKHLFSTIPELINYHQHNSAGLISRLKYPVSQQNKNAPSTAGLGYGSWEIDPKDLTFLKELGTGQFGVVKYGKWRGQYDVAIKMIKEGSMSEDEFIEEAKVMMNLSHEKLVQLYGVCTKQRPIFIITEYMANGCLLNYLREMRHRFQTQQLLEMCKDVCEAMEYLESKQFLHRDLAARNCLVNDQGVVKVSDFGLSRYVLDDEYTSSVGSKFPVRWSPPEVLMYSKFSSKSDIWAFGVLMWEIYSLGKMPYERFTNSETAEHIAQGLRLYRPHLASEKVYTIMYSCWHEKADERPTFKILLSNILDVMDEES

SMILES | EC50 Btk activity values [nM]
COC/C=C/C(=O)N1CCC[C@H]1c1nc(-c2ccc(C(=O)Nc3cc(C)ccn3)cc2)c2c(N)nccn12 [Example 57, (S,E)-4-(8-amino-3-(1-(4-methoxybut-2-enoyl)pyrrolidin-2-yl)imidazo[1,5-a]pyrazin-1-yl)-N-(4-methylpyridin-2-yl)benzamide] | <100
COC/C=C/C(=O)N1CCC[C@H]1c1nc(-c2ccc(C(=O)Nc3cc(C#N)ccn3)cc2)c2c(N)nccn12 [Example 98, (S,E)-4-(8-amino-3-(1-(4-methoxybut-2-enoyl)pyrrolidin-2-yl)imidazo[1,5-a]pyrazin-1-yl)-N-(4-cyanopyridin-2-yl)benzamide] | <100
CCCc1ccnc(NC(=O)c2ccc(-c3nc([C@@H]4CCCCN4C(=O)/C=C/COC)n4ccnc(N)c34)cc2F)c1 [Example 114, (S,E)-4-(8-amino-3-(1-(4-methoxybut-2-enoyl)piperidin-2-yl)imidazo[1,5-a]pyrazin-1-yl)-2-fluoro-N-(4-propylpyridin-2-yl)benzamide] | <100
CN(C)C/C=C/C(=O)N1CCCC[C@H]1c1nc(-c2ccc(C(=O)Nc3cccnn3)cc2)c2c(N)nccn12 [Example 73, (S,E)-4-(8-amino-3-(1-(4-(dimethylamino)but-2-enoyl)piperidin-2-yl)imidazo[1,5-a]pyrazin-1-yl)-N-(pyridazin-3-yl)benzamide] | <100
CC(C)c1ccnc(NC(=O)c2ccc(-c3nc([C@@H]4CCCN4C(=O)c4ccnc(Cl)n4)n4ccnc(N)c34)cc2)c1 [Example 70, (S)-4-(8-amino-3-(1-(2-chloropyrimidine-4-carbonyl)pyrrolidin-2-yl)imidazo[1,5-a]pyrazin-1-yl)-N-(4-isopropylpyridin-2-yl)benzamide] | <100
CC#CC(=O)N1CCC[C@H]1c1nc(-c2ccc(C(=O)Nc3cc(N4CCCC4)ccn3)cc2)c2c(N)nccn12 [Example 96, (S)-4-(8-amino-3-(1-but-2-ynoylpyrrolidin-2-yl)imidazo[1,5-a]pyrazin-1-yl)-N-(4-(pyrrolidin-1-yl)pyridin-2-yl)benzamide] | <100
COC/C=C/C(=O)N1CCC[C@H]1c1nc(-c2ccc(C(=O)Nc3nc4c(s3)CCCC4)cc2)c2c(N)nccn12 [Example 82, (S,E)-4-(8-amino-3-(1-(4-methoxybut-2-enoyl)pyrrolidin-2-yl)imidazo[1,5-a]pyrazin-1-yl)-N-(4,5,6,7-tetrahydrobenzo[d]thiazol-2-yl)benzamide] | <100
COC/C=C/C(=O)N1CCC[C@H]1c1nc(-c2ccc(C(=O)Nc3cc(C(C)C)ccn3)cc2)c2c(N)nccn12 [Example 58, (S,E)-4-(8-amino-3-(1-(4-methoxybut-2-enoyl)pyrrolidin-2-yl)imidazo[1,5-a]pyrazin-1-yl)-N-(4-isopropylpyridin-2-yl)benzamide] | <100
CC#CC(=O)N1CCC[C@H]1c1nc(-c2ccc(C(=O)Nc3cc(F)ccn3)cc2)c2c(N)nccn12 [Example 106, (S)-4-(8-amino-3-(1-but-2-ynoylpyrrolidin-2-yl)imidazo[1,5-a]pyrazin-1-yl)-N-(4-fluoropyridin-2-yl)benzamide] | <100
Nc1nccn2c([C@@H]3CCCN3C(=O)c3ccnc(Cl)n3)nc(-c3ccc(C(=O)Nc4nc5c(s4)CCCC5)cc3)c12 [Example 71, (S)-4-(8-amino-3-(1-(2-chloropyrimidine-4-carbonyl)pyrrolidin-2-yl)imidazo[1,5-a]pyrazin-1-yl)-N-(4,5,6,7-tetrahydrobenzo[d]thiazol-2-yl)benzamide] | <100
Cc1ccnc(NC(=O)c2ccc(-c3nc([C@@H]4CCCN4C(=O)/C=C/CN(C)C)n4ccnc(N)c34)cc2)c1 [Example 59, (S,E)-4-(8-amino-3-(1-(4-(dimethylamino)but-2-enoyl)pyrrolidin-2-yl)imidazo[1,5-a]pyrazin-1-yl)-N-(4-methylpyridin-2-yl)benzamide] | <100
Nc1nccn2c([C@@H]3CCCN3C(=O)c3ccnc(Cl)n3)nc(-c3ccc(C(=O)Nc4ccccn4)cc3)c12 [Example 5, (S)-4-(8-amino-3-(1-(2-chloropyrimidine-4-carbonyl)pyrrolidin-2-yl)imidazo[1,5-a]pyrazin-1-yl)-N-(pyridin-2-yl)benzamide] | <100
Nc1nccn2c([C@@H]3CCCN3C(=O)c3ccnc(Cl)n3)nc(-c3ccc(C(=O)Nc4cc(C(F)(F)F)ccn4)cc3)c12 [Example 119, (S)-4-(8-amino-3-(1-(2-chloropyrimidine-4-carbonyl)pyrrolidin-2-yl)imidazo[1,5-a]pyrazin-1-yl)-N-(4-(trifluoromethyl)pyridin-2-yl)benzamide] | <100
COC/C=C/C(=O)N1CCC[C@H]1c1nc(-c2ccc(C(=O)Nc3cc(OC)ccn3)cc2)c2c(N)nccn12 [Example 51, (S,E)-4-(8-amino-3-(1-(4-methoxybut-2-enoyl)pyrrolidin-2-yl)imidazo[1,5-a]pyrazin-1-yl)-N-(4-methoxypyridin-2-yl)benzamide] | <100
CC#CC(=O)N1CCCC[C@H]1c1nc(-c2ccc(C(=O)Nc3nccc(C)n3)cc2)c2c(N)nccn12 [Example 89, (S)-4-(8-amino-3-(1-but-2-ynoylpiperidin-2-yl)imidazo[1,5-a]pyrazin-1-yl)-N-(4-methylpyrimidin-2-yl)benzamide] | <100
Nc1nccn2c([C@@H]3CCCCN3C(=O)c3ccnc(Cl)n3)nc(-c3ccc(C(=O)Nc4cc(F)ccn4)cc3)c12 [Example 80, (S)-4-(8-amino-3-(1-(2-chloropyrimidine-4-carbonyl)piperidin-2-yl)imidazo[1,5-a]pyrazin-1-yl)-N-(4-fluoropyridin-2-yl)benzamide] | <100
CN(C)C/C=C/C(=O)NCc1nc(-c2ccc(C(=O)Nc3ccccn3)cc2)c2c(N)nccn12 [Example 69, (E)-4-(8-amino-3-((4-(dimethylamino)but-2-enamido)methyl)imidazo[1,5-a]pyrazin-1-yl)-N-(pyridin-2-yl)benzamide] | <100
CN(C)C/C=C/C(=O)N1CCC[C@H]1c1nc(-c2ccc(C(=O)Nc3cc(F)ccn3)cc2)c2c(N)nccn12 [Example 7, (S,E)-4-(8-Amino-3-(1-(4-(dimethylamino)but-2-enoyl)pyrrolidin-2-yl)imidazo[1,5-a]pyrazin-1-yl)-N-(4-fluoropyridin-2-yl)benzamide] | <100

Same assay, conditions: 60 min pre-incubation, 5 μM ATP, bin bounds in μM

SMILES | EC50 Btk activity values [nM]
Nc1nccn2c([C@@H]3CCCCN3C(=O)c3ccnc(Cl)n3)nc(-c3ccc(C(=O)Nc4cccnn4)cc3)c12 [Example 74, (S)-4-(8-amino-3-(1-(2-chloropyrimidine-4-carbonyl)piperidin-2-yl)imidazo[1,5-a]pyrazin-1-yl)-N-(pyridazin-3-yl)benzamide] | <1000
N#CCN1CCC[C@H]1c1nc(-c2ccc(C(=O)Nc3ccccn3)cc2)c2c(N)nccn12 [Example 94, (S)-4-(8-amino-3-(1-(cyanomethyl)pyrrolidin-2-yl)imidazo[1,5-a]pyrazin-1-yl)-N-(pyridin-2-yl)benzamide] | <1000
COC/C=C/C(=O)N1CCC[C@H]1c1nc(-c2ccc(C(=O)Nc3cc(F)ccn3)cc2)c2c(N)nccn12 [Example 53, (S,E)-4-(8-amino-3-(1-(4-methoxybut-2-enoyl)pyrrolidin-2-yl)imidazo[1,5-a]pyrazin-1-yl)-N-(4-fluoropyridin-2-yl)benzamide] | <1000
C=CC(=O)N1CCCC[C@H]1c1nc(-c2ccc(C(=O)Nc3ccccn3)cc2C)c2c(N)nccn12 [Example 68, 4-(3-((S)-1-acryloylpiperidin-2-yl)-8-aminoimidazo[1,5-a]pyrazin-1-yl)-3-methyl-N-(pyridin-2-yl)benzamide] | <1000
COC/C=C/C(=O)N1CCCC[C@H]1c1nc(-c2ccc(C(=O)Nc3ccncn3)cc2)c2c(N)nccn12 [Example 86, (S,E)-4-(8-amino-3-(1-(4-methoxybut-2-enoyl)piperidin-2-yl)imidazo[1,5-a]pyrazin-1-yl)-N-(pyrimidin-4-yl)benzamide] | <1000
COC/C=C/C(=O)N1CCCC[C@H]1c1nc(-c2ccc(C(=O)Nc3nccc(C)n3)cc2)c2c(N)nccn12 [Example 88, (S,E)-4-(8-amino-3-(1-(4-methoxybut-2-enoyl)piperidin-2-yl)imidazo[1,5-a]pyrazin-1-yl)-N-(4-methylpyrimidin-2-yl)benzamide] | <1000
COC/C=C/C(=O)N1CCCC[C@H]1c1nc(-c2ccc(C(=O)Nc3ccon3)cc2)c2c(N)nccn12 [Example 54, (S,E)-4-(8-amino-3-(1-(4-methoxybut-2-enoyl)piperidin-2-yl)imidazo[1,5-a]pyrazin-1-yl)-N-(isoxazol-3-yl)benzamide] | <1000
COC/C=C/C(=O)N1CCC[C@H]1c1nc(-c2ccc(C(=O)Nc3ccccn3)c(F)c2)c2c(N)nccn12 [Example 52] | <1000
COC/C=C/C(=O)N1CCCC[C@H]1c1nc(-c2ccc(C(=O)Nc3ncccn3)cc2)c2c(N)nccn12 [Example 55, (S,E)-4-(8-amino-3-(1-(4-methoxybut-2-enoyl)piperidin-2-yl)imidazo[1,5-a]pyrazin-1-yl)-N-(pyrimidin-2-yl)benzamide] | <1000
Nc1nccn2c([C@@H]3CCCCN3C(=O)c3ccnc(Cl)n3)nc(-c3ccc(C(=O)Nc4ncccn4)cc3)c12 [Example 90, (S)-4-(8-amino-3-(1-(2-chloropyrimidine-4-carbonyl)piperidin-2-yl)imidazo[1,5-a]pyrazin-1-yl)-N-(pyrimidin-2-yl)benzamide] | <1000
